# Laboratory results taken from EP0961591B1, “METHOD TO ENHANCE TISSUE AC[…] RADIOLABELED COMPOUNDS” (BOARD OF SUPERVISORS OF LOUISIANA STATE UNIVERSITY AND …, priority 1997, dated 1999).
# Bridges are numbered along the chain shown (N, C = ends). Where no end group is shown, it is not given here. [ ]: non-standard residue; d: D form.
# Legend:
# [1] = test system: Human placental-derived vascular endothelial cells; experiment: Binding and internalization in angiogenic vascular endothelial cells; conditions: acid wash
# Text: Human placental-derived vascular endothelial cells were used to assay for cell binding of the somatostatin analog, ^125I-JIC-2D. The radioligand, a somatostatin analog, ^125I-JIC-2D, was made by solid phase peptide synthesis as described in U.S. Patent No. 5,597,894. This peptide has an amino acid sequence of the following: D-Lys-D-Tyr-D-Lys-D-Tyr-D-Lys-c[Cys-Phe-D-Trp-Lys-Thr-Cys]-Thr-NH2. The cells were obtained by growing discs of human placental veins in fibrinclots for 14 days. […] These discs and their angiogenic sprouts are harvested mechanically and dissociated by vortexing. The vein discs are then discarded and the endothelial cells pooled. Cells were harvested, counted with a hemocytometer, and resuspended in binding buffer (Minimum Essential Medium (MEM), 10 mM Hepes, 0.01 % BSA). A standard assay used 500,000 cells in 1 ml of binding buffer. […] At the termination of the experiment, the incubation medium was removed, the cells were rinsed twice with Hanks balanced salt solution (HBSS), and the radioactivity in the cells determined using a gamma counter. This level of radioactivity represents total binding, which includes both membrane-bound and internalized fractions. Specific binding was determined by calculating the difference in the levels of measured radioactivity without the unlabeled competitor minus the radioactivity with the unlabeled competitor. […]
# IMR-32 cells = experiment: Nuclear translocation (Percoll density gradient fractionation); format: cell-based, human
# Experimental: The cells were washed twice in media at 4°C and resuspended in cold isotonic sucrose. The labeled cells were passed through a ball-bearing homogenizer three times to disrupt cell membranes while leaving approximately 95% of the cell nuclei intact, according to the method of Balch et al., Arch. Biochem. Biophys., vol. 240, p. […] The cell homogenate was mixed with Percoll to give a final concentration of […] Percoll and spun at 20,400 rpm in a Beckman 40.2 rotor for 45 min to generate a density gradient. Density marker beads (Pharmacia) were used to indicate density levels in the tube. The contents of the tube were fractionated in an ISCO Density Gradient Fractionator. The resulting tubes were assayed for content of radiolabeled somatostatin or analogs, DNA to indicate nuclei, protein, the plasma membrane marker 5'-nucleotidase, and the lysosome marker N-acetylglucosaminidase. The usual assumption was made that the radioactivity measured in fractions rich in a certain cell component was in fact associated with that component; e.g., the radioactivity measured in a fraction rich in plasma membrane was due to association of the radiolabeled compound with the plasma membrane.
# The density distribution is represented by the triangles in the figures. Nuclear fractions were found in the density gradient represented by Tubes 12-15, and membrane fractions by Tubes 0-6. […] Radiodecaying nuclei will then ionize DNA, resulting in cellular damage.
Substance,binding and internalization [1],cellular distribution (membrane vs nuclear fractions) (IMR-32 cells; 1 hr),cellular distribution (membrane vs nuclear fractions) (IMR-32 cells; 4 hr),cellular distribution (membrane vs nuclear fractions) (IMR-32 cells; 24 hr)
[dK][dY][dK][dY][dK]CF[dW]KTCT-NH2 (disulfide 6-11) [^125I-JIC-2D],the vast majority of the radioligand was internalized into the cell,–,–,–
"^125I-somatostatin: radiolabeled native somatostatin (AGCKNFFWKTFTSC; disulfide 3-14 (inferred); ends not checked; also: 125I label, position not given here; UniProt P61278 103-116, looked up)",–,both membrane binding and small amounts of nuclear binding,the plasma membrane binding appeared to have peaked and the nuclear fraction was dissipating,essentially no plasma membrane or nuclear binding was seen
